How the values were obtained:
Conditions in all cases: compound at 10 μM
[1] = target: T1, Human δ-opioid (DOP) (Homo sapiens, UniProt P41143); assay: Radioligand binding, human δ-opioid (DOP) membranes, FlashPlate, [3H]-Bremazocine
T1 construct: purchased Perkin Elmer Biosignal
Procedure: (§1) Cloned receptor membrane preparations from Perkin Elmer Biosignal™ were used in radioligand binding assays.
(§2) A1 Human δ-opioid (DOP), A2 Human κ-Opioid (KOP), A3 Human Melanocortin (MC3), A4 Human Melanocortin (MC4), A5 Human melanocortin (MC5), A6 Human melanin-concentrating hormone (MCH1), A7 Human μ-opioid (MOP), A8 Human neurokinin (NK1), A9 Human neuropeptide Y (NPY-Y1), A10 Human opioid (ORL1) A11 Mouse urotensin (mUR2)
(§3) Screening experiments were performed in either a 50 μl filtration or 25 μl FlashPlate assay format using the following protocol:
(§4) 19.5 μl buffer, 0.5 μl of compound diluted in DMSO, 5 μl of radioligand diluted in binding buffer.
(§5) The day prior to performing the experiment 50 μl DMSO was added to each well of the compound plates to yield compounds at a final concentration of 10 mM. Daughter plates were then created by diluting the compounds further in DMSO to a concentration of 0.5 mM. The mother plates were frozen immediately.
(§6) Immobilize membranes into FlashPlate microplates using PerkinElmer BioSignal's proprietary coating procedure. Dilute radioligand to 5× the final concentration in binding buffer. Add 19.5 μl buffer to each well of the FlashPlate. Add 0.5 μl of DMSO (total value, 5 wells), reference ligand (non-specific value, 3 wells) or compound to the corresponding wells in the FlashPlate microplate. Initiate the reaction by adding 5 μl of radioligand to each well. Apply TopSeal-A onto FlashPlate microplates. Incubate at room temperature for 1 hour in the dark. Count for 30 seconds per well on TopCount Microplate Scintillation and Luminescence Counter (PerkinElmer) using a count delay of 60 seconds.
(§7) Percentage inhibition was calculated using the following formula: [formula]

[2] = target: T2, Mouse urotensin (mUR2) (Mus musculus, UniProt Q8VIH9); assay: Radioligand binding, mouse urotensin mUR2 membranes, FlashPlate, [125I]-Urotensin II
T2 construct: purchased Perkin Elmer Biosignal
T2 sequence (Q8VIH9 1-385): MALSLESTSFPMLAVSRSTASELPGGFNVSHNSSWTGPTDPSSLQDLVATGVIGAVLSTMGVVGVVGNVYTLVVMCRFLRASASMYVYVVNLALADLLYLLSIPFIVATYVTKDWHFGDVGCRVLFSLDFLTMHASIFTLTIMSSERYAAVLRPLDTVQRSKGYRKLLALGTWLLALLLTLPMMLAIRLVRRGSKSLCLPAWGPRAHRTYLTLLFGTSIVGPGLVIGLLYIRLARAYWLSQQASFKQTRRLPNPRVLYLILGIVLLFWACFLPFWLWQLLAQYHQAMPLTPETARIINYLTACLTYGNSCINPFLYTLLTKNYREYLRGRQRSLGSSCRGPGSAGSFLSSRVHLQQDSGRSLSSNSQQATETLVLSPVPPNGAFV
Procedure: as §1, §2, §3, §4, §5, §6, §7

[3] = target: T3, Human Melanocortin (MC4) (Homo sapiens, UniProt P32245); assay: Radioligand binding, human melanocortin MC4 membranes, FlashPlate, [125I]-NDP-αMSH
T3 construct: purchased Perkin Elmer Biosignal
Procedure: as §1, §2, §3, §4, §5, §6, §7

[4] = target: T4, Human μ-opioid (MOP) (Homo sapiens, UniProt P35372); assay: Radioligand binding, human μ-opioid (MOP) membranes, FlashPlate, [3H]-Naloxone
T4 construct: purchased Perkin Elmer Biosignal
Procedure: as §1, §2, §3, §4, §5, §6, §7

[5] = target: T5, Human κ-Opioid (KOP) (Homo sapiens, UniProt P41145); assay: Radioligand binding, human κ-opioid (KOP) membranes, filtration, [3H]-Diprenorphine
T5 construct: purchased Perkin Elmer Biosignal
Procedure: as §1, §2, §3
(§8) 44 μl membranes diluted in buffer, 1 μl of compound diluted in DMSO, 5 μl of radioligand diluted in binding buffer.
as §5
(§9) Thaw membranes on ice then dilute membranes in binding buffer at a concentration of 1 Unit per well. Dilute radio-ligand to 10 times the final concentration in binding buffer. Add 44 μl of diluted membranes to each well of the deep-well plate. Add 1 μl of DMSO (total value, 5 wells), reference ligand (non-specific value, 3 wells) or compound to the corresponding wells in the deep-well plate. Initiate the reaction by adding 5 μl of radioligand to each well and vortex gently. Incubate at room temperature for 1 hour. During incubation, pre-incubate the Multiscreen Harvest plates in 0.3% PEI. Filter over pre-soaked Multiscreen Harvest plates using a Tomtec Harvester. Wash 9 times with 500 μl of cold 50 mM Tris-HCl pH 7.4 at 4° C. and air-dry for 30 minutes at room temperature under a fume hood. Apply a bottom seal to the Multiscreen Harvest plates. Add 25 μl of MicroScint-0 to each well. Apply TopSeal-A to the plate. Count for 30 seconds per well on TopCount Microplate Scintillation and Luminescence Counter (PerkinElmer) using a count delay of 60 seconds.
as §7

[6] = target: T6, Human Melanocortin (MC3) (Homo sapiens, UniProt P41968); assay: Radioligand binding, human melanocortin MC3 membranes, FlashPlate, [125I]-NDP-αMSH
T6 construct: purchased Perkin Elmer Biosignal
Procedure: as §1, §2, §3, §4, §5, §6, §7

[7] = target: T7, Human melanocortin (MC5) (Homo sapiens, UniProt P33032); assay: Radioligand binding, human melanocortin MC5 membranes, FlashPlate, [125I]-NDP-αMSH
T7 construct: purchased Perkin Elmer Biosignal
Procedure: as §1, §2, §3, §4, §5, §6, §7

[8] = target: T8, Human neuropeptide Y (NPY-Y1) (Homo sapiens, UniProt P25929); assay: Radioligand binding, human neuropeptide Y NPY-Y1 membranes, FlashPlate, [125I]-PYY
T8 construct: purchased Perkin Elmer Biosignal
T8 sequence (P25929 1-384): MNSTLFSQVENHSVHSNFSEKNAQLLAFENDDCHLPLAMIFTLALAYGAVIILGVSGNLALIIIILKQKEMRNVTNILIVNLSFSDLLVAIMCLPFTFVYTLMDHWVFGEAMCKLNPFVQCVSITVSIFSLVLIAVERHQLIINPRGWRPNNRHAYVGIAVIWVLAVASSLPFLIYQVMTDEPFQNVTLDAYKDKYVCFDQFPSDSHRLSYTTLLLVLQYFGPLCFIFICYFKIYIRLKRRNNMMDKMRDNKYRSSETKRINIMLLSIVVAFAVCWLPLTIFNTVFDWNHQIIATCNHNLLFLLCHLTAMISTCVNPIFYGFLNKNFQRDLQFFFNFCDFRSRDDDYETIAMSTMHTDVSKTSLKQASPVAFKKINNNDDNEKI
Procedure: as §1, §2, §3, §4, §5, §6, §7

[9] = target: T9, Human melanin-concentrating hormone (MCH1) (Homo sapiens, UniProt Q99705); assay: Radioligand binding, human melanin-concentrating hormone MCH1 membranes, FlashPlate, [125I]-S36057
T9 construct: purchased Perkin Elmer Biosignal
Procedure: as §1, §2, §3, §4, §5, §6, §7

[10] = target: T10, Human neurokinin (NK1) (Homo sapiens, UniProt P25103); assay: Radioligand binding, human neurokinin NK1 membranes, filtration, [125I]-Substance P
T10 construct: purchased Perkin Elmer Biosignal
Procedure: as §1, §2, §3, §8, §5, §9, §7

[11] = target: T11, Human opioid (ORL1) (Homo sapiens, UniProt P41146); assay: Radioligand binding, human opioid ORL1 membranes, FlashPlate, [125I]-Nociceptin
T11 construct: purchased Perkin Elmer Biosignal
Procedure: as §1, §2, §3, §4, §5, §6, §7

T1 sequence (P41143 whole entry): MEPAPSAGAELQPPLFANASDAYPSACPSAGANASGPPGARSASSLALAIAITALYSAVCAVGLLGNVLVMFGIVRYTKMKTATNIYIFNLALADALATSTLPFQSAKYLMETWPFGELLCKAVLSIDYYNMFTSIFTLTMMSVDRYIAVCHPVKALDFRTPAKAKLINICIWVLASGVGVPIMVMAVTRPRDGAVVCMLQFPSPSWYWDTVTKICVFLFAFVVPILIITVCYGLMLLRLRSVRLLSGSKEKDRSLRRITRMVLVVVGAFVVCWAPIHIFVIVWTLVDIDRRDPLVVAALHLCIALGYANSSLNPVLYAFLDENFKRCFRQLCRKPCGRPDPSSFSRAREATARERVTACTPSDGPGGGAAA
T7 sequence (P33032 whole entry): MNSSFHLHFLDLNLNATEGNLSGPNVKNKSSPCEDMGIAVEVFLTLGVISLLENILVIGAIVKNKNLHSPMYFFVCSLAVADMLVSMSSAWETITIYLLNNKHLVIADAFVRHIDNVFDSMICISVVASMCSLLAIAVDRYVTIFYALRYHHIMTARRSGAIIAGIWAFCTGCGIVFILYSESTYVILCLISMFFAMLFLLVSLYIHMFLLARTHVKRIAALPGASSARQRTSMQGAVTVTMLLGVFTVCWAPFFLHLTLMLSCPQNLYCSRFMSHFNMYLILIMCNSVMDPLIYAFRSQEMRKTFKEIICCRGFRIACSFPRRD
T10 sequence (P25103 whole entry): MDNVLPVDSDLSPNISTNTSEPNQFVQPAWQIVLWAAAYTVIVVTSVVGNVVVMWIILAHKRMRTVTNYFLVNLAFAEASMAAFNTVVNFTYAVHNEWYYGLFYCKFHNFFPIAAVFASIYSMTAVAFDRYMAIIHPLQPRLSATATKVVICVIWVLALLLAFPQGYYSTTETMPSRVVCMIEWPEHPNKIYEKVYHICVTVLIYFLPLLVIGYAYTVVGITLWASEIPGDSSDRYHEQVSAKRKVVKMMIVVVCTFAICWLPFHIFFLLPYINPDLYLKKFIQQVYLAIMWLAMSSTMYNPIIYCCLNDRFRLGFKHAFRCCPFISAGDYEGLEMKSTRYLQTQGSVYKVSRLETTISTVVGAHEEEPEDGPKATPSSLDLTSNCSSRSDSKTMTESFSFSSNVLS
T3 sequence (P32245 whole entry): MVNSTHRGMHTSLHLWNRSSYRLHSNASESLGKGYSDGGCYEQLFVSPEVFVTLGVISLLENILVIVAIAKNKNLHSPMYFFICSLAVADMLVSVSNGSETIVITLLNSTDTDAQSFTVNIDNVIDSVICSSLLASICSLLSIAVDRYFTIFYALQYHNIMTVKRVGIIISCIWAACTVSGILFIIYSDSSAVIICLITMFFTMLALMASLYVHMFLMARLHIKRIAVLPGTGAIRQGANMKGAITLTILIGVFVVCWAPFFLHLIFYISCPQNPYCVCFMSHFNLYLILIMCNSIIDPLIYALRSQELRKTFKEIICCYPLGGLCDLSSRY
T6 sequence (P41968 whole entry): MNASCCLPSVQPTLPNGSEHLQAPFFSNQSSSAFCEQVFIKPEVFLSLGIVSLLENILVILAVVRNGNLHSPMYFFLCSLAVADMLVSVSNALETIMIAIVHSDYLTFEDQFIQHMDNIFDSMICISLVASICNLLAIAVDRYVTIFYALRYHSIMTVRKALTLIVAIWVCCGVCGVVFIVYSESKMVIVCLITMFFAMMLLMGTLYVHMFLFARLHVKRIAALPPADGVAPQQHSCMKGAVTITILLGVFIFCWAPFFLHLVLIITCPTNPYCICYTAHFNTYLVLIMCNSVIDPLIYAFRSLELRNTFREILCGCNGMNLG
T9 sequence (Q99705 whole entry): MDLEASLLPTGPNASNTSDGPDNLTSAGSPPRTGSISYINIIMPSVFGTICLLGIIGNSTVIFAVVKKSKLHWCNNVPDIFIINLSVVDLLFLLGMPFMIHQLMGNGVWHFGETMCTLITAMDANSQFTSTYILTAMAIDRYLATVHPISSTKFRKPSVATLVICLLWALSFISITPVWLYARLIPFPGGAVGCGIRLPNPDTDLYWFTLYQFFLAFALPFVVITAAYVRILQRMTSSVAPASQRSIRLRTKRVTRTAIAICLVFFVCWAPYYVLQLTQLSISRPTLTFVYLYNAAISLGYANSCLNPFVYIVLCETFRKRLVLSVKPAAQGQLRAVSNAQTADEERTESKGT
T5 sequence (P41145 whole entry): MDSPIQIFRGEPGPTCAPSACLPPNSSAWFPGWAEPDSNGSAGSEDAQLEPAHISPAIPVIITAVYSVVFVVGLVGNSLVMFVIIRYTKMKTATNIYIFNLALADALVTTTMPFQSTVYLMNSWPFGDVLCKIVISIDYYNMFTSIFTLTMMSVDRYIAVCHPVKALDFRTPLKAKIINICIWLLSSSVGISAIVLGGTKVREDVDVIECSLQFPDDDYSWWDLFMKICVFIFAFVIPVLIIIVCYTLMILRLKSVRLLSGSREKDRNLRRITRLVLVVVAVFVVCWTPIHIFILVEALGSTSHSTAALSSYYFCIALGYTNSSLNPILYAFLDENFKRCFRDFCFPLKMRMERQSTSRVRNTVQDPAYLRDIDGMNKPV
T11 sequence (P41146 whole entry): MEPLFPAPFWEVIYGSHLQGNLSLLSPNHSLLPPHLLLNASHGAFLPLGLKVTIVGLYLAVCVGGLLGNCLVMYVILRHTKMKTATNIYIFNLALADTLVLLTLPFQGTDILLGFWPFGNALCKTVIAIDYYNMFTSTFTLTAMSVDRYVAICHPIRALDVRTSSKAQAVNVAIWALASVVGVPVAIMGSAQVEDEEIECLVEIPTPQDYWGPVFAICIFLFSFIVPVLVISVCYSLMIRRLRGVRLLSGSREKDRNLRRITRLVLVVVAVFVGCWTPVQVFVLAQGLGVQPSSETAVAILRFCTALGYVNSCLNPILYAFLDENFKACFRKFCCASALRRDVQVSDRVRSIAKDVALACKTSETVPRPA
T4 sequence (P35372 whole entry): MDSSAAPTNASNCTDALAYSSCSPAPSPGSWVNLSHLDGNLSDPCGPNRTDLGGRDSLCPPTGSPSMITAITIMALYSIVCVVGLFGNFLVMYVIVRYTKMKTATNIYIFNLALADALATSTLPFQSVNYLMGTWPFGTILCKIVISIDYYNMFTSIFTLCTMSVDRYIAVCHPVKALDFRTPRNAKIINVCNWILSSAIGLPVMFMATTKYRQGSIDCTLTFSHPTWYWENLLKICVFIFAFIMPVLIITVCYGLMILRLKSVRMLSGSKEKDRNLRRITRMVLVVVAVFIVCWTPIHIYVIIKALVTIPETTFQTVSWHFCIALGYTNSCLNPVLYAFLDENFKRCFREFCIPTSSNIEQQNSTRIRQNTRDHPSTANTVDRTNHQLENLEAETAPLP

COC[C@H]1OC(OCc2ccccc2)[C@H](NC(=O)CCCNC(=N)N)[C@@H](OCc2ccc(-c3ccccc3)cc2)[C@@H]1O (some centres unmarked) [compound 25]
A1 radioligand binding inhibition ([1]; human δ-opioid (DOP) membranes): − (“−” indicates less than 50% inhibition at 10 μM)
A11 radioligand binding inhibition ([2]; mouse urotensin mUR2 membranes): − (“−” indicates less than 50% inhibition at 10 μM)
A4 radioligand binding inhibition ([3]; human melanocortin MC4 membranes): + (“+” indicates greater than 50% inhibition at 10 μM)
A7 radioligand binding inhibition ([4]; human μ-opioid (MOP) membranes): − (“−” indicates less than 50% inhibition at 10 μM)
A2 radioligand binding inhibition ([5]; human κ-opioid (KOP) membranes): − (“−” indicates less than 50% inhibition at 10 μM)
A3 radioligand binding inhibition ([6]; human melanocortin MC3 membranes): − (“−” indicates less than 50% inhibition at 10 μM)
A5 radioligand binding inhibition ([7]; human melanocortin MC5 membranes): + (“+” indicates greater than 50% inhibition at 10 μM)
A9 radioligand binding inhibition ([8]; human NPY-Y1 membranes): − (“−” indicates less than 50% inhibition at 10 μM)
A6 radioligand binding inhibition ([9]; human MCH1 membranes): + (“+” indicates greater than 50% inhibition at 10 μM)
A8 radioligand binding inhibition ([10]; human neurokinin NK1 membranes): + (“+” indicates greater than 50% inhibition at 10 μM)
A10 radioligand binding inhibition ([11]; human ORL1 membranes): − (“−” indicates less than 50% inhibition at 10 μM)

NCCCC(=O)NC1C(OCc2ccc(Cl)cc2)OC(COCc2ccc3ccccc3c2)C(O)C1OCc1ccccc1 (single isomer, unassigned) [compound 502]
A1: inhibition of radioligand binding, human δ-opioid (DOP) ([1]; [3H]-Bremazocine): − (“−” indicates less than 50% inhibition at 10 μM)
A11: inhibition of radioligand binding, mouse urotensin (mUR2) ([2]; [125I]-Urotensin II): − (“−” indicates less than 50% inhibition at 10 μM)
A4: inhibition of radioligand binding, human melanocortin (MC4) ([3]; [125I]-NDP-αMSH): + (“+” indicates greater than 50% inhibition at 10 μM)
A7: inhibition of radioligand binding, human μ-opioid (MOP) ([4]; [3H]-Naloxone, 10 µM): + (“+” indicates greater than 50% inhibition at 10 μM)
A2: inhibition of radioligand binding, human κ-opioid (KOP) ([5]; [3H]-Diprenorphine): − (“−” indicates less than 50% inhibition at 10 μM)
A3: inhibition of radioligand binding, human melanocortin (MC3) ([6]; [125I]-NDP-αMSH, 10 µM): − (“−” indicates less than 50% inhibition at 10 μM)
A5: inhibition of radioligand binding, human melanocortin (MC5) ([7]; [125I]-NDP-αMSH): + (“+” indicates greater than 50% inhibition at 10 μM)
A9: inhibition of radioligand binding, human neuropeptide Y (NPY-Y1) ([8]; [125I]-PYY): − (“−” indicates less than 50% inhibition at 10 μM)
A6: inhibition of radioligand binding, human melanin-concentrating hormone (MCH1) ([9]; [125I]-S36057, 10 µM): + (“+” indicates greater than 50% inhibition at 10 μM)
A8: inhibition of radioligand binding, human neurokinin (NK1) ([10]; [125I]-Substance P): + (“+” indicates greater than 50% inhibition at 10 μM)
A10: inhibition of radioligand binding, human opioid (ORL1) ([11]; [125I]-Nociceptin): + (“+” indicates greater than 50% inhibition at 10 μM)

COC[C@H]1OC(OCc2ccc(-c3ccccc3)cc2)[C@H](NC(=O)CCCN)[C@@H](OCc2cccc(O)c2)[C@@H]1O (some centres unmarked) [compound 131]
A1 radioligand binding, percentage inhibition ([1]; [3H]-Bremazocine): − (“−” indicates less than 50% inhibition at 10 μM)
A11 radioligand binding, percentage inhibition ([2]; [125I]-Urotensin II): − (“−” indicates less than 50% inhibition at 10 μM)
A4 radioligand binding, percentage inhibition ([3]; [125I]-NDP-αMSH): − (“−” indicates less than 50% inhibition at 10 μM)
A2 radioligand binding, percentage inhibition ([5]; [3H]-Diprenorphine): − (“−” indicates less than 50% inhibition at 10 μM)
A3 radioligand binding, percentage inhibition ([6]; [125I]-NDP-αMSH): − (“−” indicates less than 50% inhibition at 10 μM)
A5 radioligand binding, percentage inhibition ([7]; [125I]-NDP-αMSH): − (“−” indicates less than 50% inhibition at 10 μM)
A9 radioligand binding, percentage inhibition ([8]; [125I]-PYY): − (“−” indicates less than 50% inhibition at 10 μM)
A6 radioligand binding, percentage inhibition ([9]; [125I]-S36057): + (“+” indicates greater than 50% inhibition at 10 μM)
A8 radioligand binding, percentage inhibition ([10]; [125I]-Substance P): − (“−” indicates less than 50% inhibition at 10 μM)
A10 radioligand binding, percentage inhibition ([11]; [125I]-Nociceptin): − (“−” indicates less than 50% inhibition at 10 μM)

From patent publication US20080009418A1, “Selective Inhibitors” (Alchemia LTD., priority 2004, published 2008)
